Data from PMC11285368, “Chasing Red Herrings: Palladium Metal Salt Impurities Feigning KRAS Activity in Biochemical Assays” (Journal of Medicinal Chemistry, 2024).
Like-named read-outs stand apart in the source and are kept apart here.

Molecular target: T1, KRAS^G12D(GTP)::CRAF (Homo sapiens, UniProt P01116, G12D)
T1 construct: KRAS^G12D 1–169, N-terminal 6His-tag, C-terminal avi-tag (Xtal BioStructures, Inc.); 6His (N); purchased Xtal BioStructures, Inc. (KRAS); Viva Biotech Ltd. (CRAF)
Experiment: KRAS^G12D(GTP)::CRAF AlphaScreen
Type: biochemical
Description: The proteins have been used at these given final assay concentrations:
Test compounds dissolved in DMSO were dispensed onto assay plates (Proxiplate 384 PLUS, white, PerkinElmer; 6008289) using an Access Labcyte Workstation with the Labcyte Echo 555. For the chosen highest assay concentration of 100 μM, 150 nl of compound solution were transferred from a 10 mM DMSO compound stock solution. A series of 11 5-fold dilutions per compound was transferred to the assay plate, and compound dilutions were tested in duplicates. DMSO was added as backfill to a total volume of 150 nl. The assay was run on a fully automated robotic system in a darkened room below 100 Lux. […] After 60 min incubation time 5 μL of AlphaScreen bead mix in assay buffer were added into columns 1–23. Bead mix consisted of AlphaLISA Glutathione Acceptor Beads (PerkinElmer, cat. no. AL109) and Alpha-Screen Streptavidin Donor Beads (perkinElmer cat. no. 6760002) in assay buffer at a final assay concentration of 10 μg/mL each. Plates were kept at room temperature in a darkened incubator. After an additional 60 min incubation time the signal was measured on a PerkinElmer Envision HTS Multilabel Reader using the AlphaScreen specs from PerkinElmer.
IC50 values were calculated and analyzed with Boehringer Ingelheim’s MEGALAB IC50 application using a 4 parametric logistic model.

T1 sequence (P01116 1-169 isoform P01116-2 G12D): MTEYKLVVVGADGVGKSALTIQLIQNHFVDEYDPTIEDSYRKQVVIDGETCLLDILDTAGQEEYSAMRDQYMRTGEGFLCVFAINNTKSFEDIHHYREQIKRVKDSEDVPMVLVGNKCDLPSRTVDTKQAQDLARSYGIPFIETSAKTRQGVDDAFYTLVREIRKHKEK

## [Cl][Pd][Cl] [PdCl2, Palladium(II) chloride]
Batch 1, read-out: KRAS^G12D(GTP)::CRAF AlphaScreen IC50
  IC50: 700 ± 200 nM
Luminescence, GST-CRAF^(1–303) and KRAS^G12D(1–169)-biotin, read-out: IC50, KRAS^G12D(GTP)::CRAF AlphaScreen
  IC50: 700 ± 200 nM
